Where “and” joins values, the source holds several entries; their conditions need not be identical. Equal values may be shown once.
Assay: pharmacokinetics in female CD1 mice, plasma by UPLC-MS/MS
Type: in vivo
Conditions: plasma
Procedure: ENDX PROTAC 7 and PROTAC 9 pharmacokinetics were characterized in female CD1 mice. Blood samples were collected from mice anesthetized under isoflurane via retro-orbital eye bleed into tubes containing EDTA and immediately chilled on ice. NaF was added to the EDTA collection tubes to help stabilize the drug in whole blood for the second IV and IP studies with ENDX PROTAC 9, and for the IV and oral studies with PROTAC 7. Plasma and red blood cells were separated immediately by centrifugation in a refrigerated centrifuge at 4°C. The plasma was transferred to a separate tube and immediately frozen at -20°C.
For IV dosing, ENDX PROTAC 9 was dissolved in 10% DMSO, 10% PEG 400, and 80% normal saline for a final concentration of 0.2 mg/mL ENDX PROTAC 9 for the 1 mg/kg IV doses. ENDX PROAC 7 was dissolved in 15% DMSO, 9.44% PEG400, and 55% normal saline for a final concentration of 0.19 mg/mL for the 1 mg/kg IV doses. Blood samples (3 mice per time-point) were collected 5 minutes, 15 minutes, 0.5 hour, 1 hour, 2 hours, 4 hours, 8 hours, and 24 hours after administration of the ENDX PROTAC. […] For oral dosing, ENDX PROTAC 9 (10 mg/kg) and ENDX PROTAC 7 (10 mg/kg) were suspended in 1 mM ascorbic acid:PEG400, 1:1 v/v for a final concentration of 1.0 mg/mL ENDX PROTAC. Blood samples (three mice per time-point) were collected 15 minutes, 0.5 hour, 1 hour, 2 hours, 4 hours, 6 hours, 8 hours, and 24 hours after administering the ENDX PROTAC. For I.P. dosing, ENDX PROTAC 9 (4 mg/kg) was prepared in 1 mM ascorbic acid:PEG400, 1:1 v/v for a final concentration of 0.4 mg/mL ENDX PROTAC 9. Blood samples (three mice per time-point) were collected 15 minutes, 0.5 hour, 1 hour, 2 hours, 4 hours, 6 hours, 8 hours, and 24 hours after administration. Plasma concentrations of ENDX PROTAC 7 and 9 were measured using UPLC-MS/MS.

CCC(=C(c1ccc(O)cc1)c1ccc(OCCN(C)C(=O)COCCOCCNC(=O)Cc2ccc3c(c2)CN(C2CCC(=O)NC2=O)C3=O)cc1)c1ccccc1 (stereo not shown) [TC-Pr-009, 2-[2-(2-2-[2-(2,6-dioxopiperidin-3-yl)-1-oxo-2,3-dihydro-1H-isoindol-5-yl]acetamidoethoxy)ethoxy]-N-(2-4-[1-(4-hydroxyphenyl)-2-phenylbut-1-en-1-yl]phenoxyethyl)-N-methylacetamide]
Concentration ENDX PROTAC 9 (IV 1 mg/kg, EDTA without NaF, 60 minutes, individual mice, listed as ENDX PROTAC 9, 1 mg/kg): 0.5069 ng/mL and 0.2706 ng/mL and 0.0179 ng/mL | Concentration ENDX PROTAC 9 (IV 1 mg/kg, EDTA without NaF, 120 minutes, individual mice, listed as ENDX PROTAC 9, 1 mg/kg): 0.8988 ng/ml and 0.4446 ng/ml and BLD | Concentration ENDX PROTAC 9 (IV 1 mg/kg, EDTA without NaF, 240 minutes, individual mice, listed as ENDX PROTAC 9, 1 mg/kg): BLD and 0.0197 ng/ml and 0.3141 ng/ml | Concentration ENDX PROTAC 9 (IV 1 mg/kg, EDTA without NaF, 480 minutes, individual mice, listed as ENDX PROTAC 9, 1 mg/kg): 0 ng/ml and BLD (2×) | Concentration ENDX PROTAC 9 (IV 1 mg/kg, EDTA without NaF, 1440 minutes, individual mice, listed as ENDX PROTAC 9, 1 mg/kg): BLD and 0 ng/ml (2×) | Concentration ENDX PROTAC 9 (IV 1 mg/kg, all data (both IV studies), 30 minutes, listed as ENDX PROTAC 9, 1 mg/kg): 1.662 ng/mL | Concentration ENDX PROTAC 9 (IV 1 mg/kg, all data (both IV studies), 120 minutes, listed as ENDX PROTAC 9, 1 mg/kg): BLD | Concentration ENDX PROTAC 9 (IV 1 mg/kg, all data (both IV studies), 240 minutes, listed as ENDX PROTAC 9, 1 mg/kg): BLD | Concentration ENDX PROTAC 9 (IV 1 mg/kg, second study (NaF), 5 minutes, individual mice, listed as ENDX PROTAC 9, 1 mg/kg): 86.31 ng/mL and 91.46 ng/mL and 34.87 ng/mL | Concentration ENDX PROTAC 9 (IV 1 mg/kg, second study (NaF), 15 minutes, individual mice, listed as ENDX PROTAC 9, 1 mg/kg): 8.2 ng/mL and 33.8 ng/mL and 10.72 ng/mL | Concentration ENDX PROTAC 9 (IV 1 mg/kg, second study (NaF), 60 minutes, individual mice, listed as ENDX PROTAC 9, 1 mg/kg): 1.18 ng/mL and 1.26 ng/mL and 12.64 ng/mL | Concentration ENDX PROTAC 9 (IV 1 mg/kg, second study (NaF), 240 minutes, individual mice, listed as ENDX PROTAC 9, 1 mg/kg): 0.19 ng/mL and 1.11 ng/mL and 0.39 ng/mL | Concentration ENDX PROTAC 9 (PO 10 mg/kg, 15 minutes, individual mice, listed as ENDX PROTAC 9, 10 mg/kg): 6.95 ng/mL and 4.77 ng/mL and 2.11 ng/mL | Concentration ENDX PROTAC 9 (PO 10 mg/kg, 30 minutes, individual mice, listed as ENDX PROTAC 9, 10 mg/kg): 0.58 ng/mL and 1.05 ng/mL | Concentration ENDX PROTAC 9 (PO 10 mg/kg, 60 minutes, individual mice, listed as ENDX PROTAC 9, 10 mg/kg): 6.78 ng/mL and 15.8 ng/mL and 10.6 ng/mL | Concentration ENDX PROTAC 9 (PO 10 mg/kg, 120 minutes, individual mice, listed as ENDX PROTAC 9, 10 mg/kg): 0.25 ng/ml and BLD* and 0.55 ng/ml | Concentration ENDX PROTAC 9 (PO 10 mg/kg, 240 minutes, individual mice, listed as ENDX PROTAC 9, 10 mg/kg): 0.9 ng/mL and 0.16 ng/mL and 0.14 ng/mL | Concentration ENDX PROTAC 9 (PO 10 mg/kg, 360 minutes, individual mice, listed as ENDX PROTAC 9, 10 mg/kg): 2.61 ng/ml and BLD and 0.05 ng/ml | Concentration ENDX PROTAC 9 (PO 10 mg/kg, 480 minutes, individual mice, listed as ENDX PROTAC 9, 10 mg/kg): BLD | Concentration ENDX PROTAC 9 (PO 10 mg/kg, 1440 minutes, individual mice): BLD | Concentration ENDX PROTAC 9 (TABLE 7, titled PO pk (10 mg/kg), 15 minutes, individual mice, listed as ENDX PROTAC 9, 10 mg/kg): 111.19 ng/mL and 133.09 ng/mL | Concentration ENDX PROTAC 9 (TABLE 7, titled PO pk (10 mg/kg), 30 minutes, individual mice, listed as ENDX PROTAC 9, 10 mg/kg): 156.42 ng/mL and 83.56 ng/mL | Concentration ENDX PROTAC 9 (TABLE 7, titled PO pk (10 mg/kg), 60 minutes, individual mice, listed as ENDX PROTAC 9, 10 mg/kg): 141.51 ng/mL and 93.93 ng/mL | Concentration ENDX PROTAC 9 (TABLE 7, titled PO pk (10 mg/kg), 120 minutes, individual mice, listed as ENDX PROTAC 9, 10 mg/kg): 60.32 ng/mL and 106.7 ng/mL and 40.51 ng/mL | Concentration ENDX PROTAC 9 (TABLE 7, titled PO pk (10 mg/kg), 240 minutes, individual mice, listed as ENDX PROTAC 9, 10 mg/kg): 17.29 ng/mL and 5.09 ng/mL and 30.55 ng/mL | Concentration ENDX PROTAC 9 (TABLE 7, titled PO pk (10 mg/kg), 360 minutes, individual mice, listed as ENDX PROTAC 9, 10 mg/kg): 1.64 ng/mL and 0.75 ng/mL and 2.62 ng/mL | Concentration ENDX PROTAC 9 (TABLE 7, titled PO pk (10 mg/kg), 480 minutes, individual mice, listed as ENDX PROTAC 9, 10 mg/kg): 7.23 ng/mL and 1.2 ng/mL | Concentration ENDX PROTAC 9 (TABLE 7, titled PO pk (10 mg/kg), 1440 minutes, individual mice, listed as ENDX PROTAC 9, 10 mg/kg): 1.01 ng/mL and 0.33 ng/mL and 0.12 ng/mL

Reference: patent EP4817688A2, “DEGRADING PKCß1 TO TREAT CANCER” (Mayo Foundation for Medical Education and Research, priority 2020, dated 2022)
